In publication PMC11695783 (Frontiers in Pharmacology, 2024):
“And” between values parts separate entries of the source, which are not always exact repeats. Equal values may be shown once.

How the values were obtained:
[1] = tested on: Mycoplasma pneumoniae-infected mice (lung tissue); test: Histopathological assessment of lung tissue (HPS, response and recovery rates) in M. pneumoniae-infected mice; format: in vivo, BALB/c mice; set-up: HPS value (mean) / HPS: scale not given here; settings: for HPS: individual mice, listed as TiamulinIM
Description: Adult BALB/c mice (20–22 g) were divided into a control group, a positive group, and compound 16C groups at low (20 mg/kg), medium (40 mg/kg), and high-dose (80 mg/kg) levels and oral and intramuscular tiamulin treatment groups (40 mg/kg). We formulated the above dose range based on the dose at which tiamulin was approved for injection (10–20 mg/kg) and the dose previously reported (45 mg/kg) ([EMA, 1999]; [Xiao et al., 2016]). In summary, we selected similar doses for compound 16C in vivo study. 40 mg/kg was used as an intermediate value, one-half of it as a low dose, and two times of it as a high dose. To prepare the challenge solution, logarithmic phase culture suspensions were centrifuged at 1700 g for 10 min, and the pellets were suspended in sterile PBS to obtain 1 × 10^9 CFU/mL. Before the challenge, mice were anesthetized with tribromoethanol (250 mg/kg, IP). Mice in the control groups were intratracheally inoculated with sterile PBS, whereas mice in the other groups were intratracheally challenged with 50 μL (1 × 10^9 CFU/mL) M. pneumoniae suspension once a day for 3 days. Compound 16C and tiamulin (tiamulin-IM group) dissolved using the method mentioned in pharmacokinetic studies, and the tiamulin fumarate soluble powder was dissolved in ddH2O for oral administration. After the final challenge, antibiotics were administered at low, medium, and high-dose levels (see above) at 10 a.m. and 10 p.m. daily for 4 consecutive days. Normal saline containing 5% DMSO and 5% Tween-80 was administered as control and positive groups by thigh intramuscular injection. To compare the efficacy of compound 16C and tiamulin under the same route of administration, we used the original tiamulin for intramuscular administration in the same formulation. On the other hand, tiamulin fumarate soluble powder, approved for oral administration to treat animal mycoplasma diseases in China, was administered to mice by gavage. Based on a clinical study of lefamulin in community-acquired bacterial pneumonia (CABP), subjects were administered twice a day and the 96 ± 24 h of starting treatment was an essential point for early clinical response (ECR) ([Paukner et al., 2022]). We therefore stopped treatment at 96 h and sampled at 192 h to explore whether the disease worsened after cessation of treatment. Bronchoalveolar lavage fluid (BALF) and lungs were collected at 0, 96, 192 h (Samples of 0 h were collected before starting treatment, and mice were fed ad libitum without drug treatment during 96–192 h) after the first dose, BALF for cytokine and cytological analysis and lung for histopathological evaluation.
Lung tissues were collected at 0, 96, and 192 h following drug administration. Lungs were collected from 6 mice in each group at 96 h and 13–15 mice in each group at 192 h. In addition, the lungs of 8 untreated infected mice were taken at 0 h as initial controls. Lung tissues were fixed in 4% paraformaldehyde, and whole-mount sections of paraffin-embedded lungs were stained with hematoxylin and eosin (H&E). The histopathologic score (HPS) was determined according to published protocols by a single pathologist who was unaware of the treatment status and groups of the animals ([Cimolai et al., 1992]). The HPS was based on individual grading of peribronchiolar/bronchial infiltrate, bronchiolar/bronchial luminal exudate, perivascular infiltrate, and parenchymal pneumoniae.

[2] = tested on: Mycoplasma pneumoniae strain M129 (ATCC 29342); test: Time-kill curves; format: cell-based; set-up: M. pneumoniae count in time-kill curve: unit not given here
Outline: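 Strain grown at 37 °C, 5% CO2 in modified SP-4 broth (pH 7.4, 20% FBS). Cultures incubated 72 h, sampled every 12 h, 10-fold serially diluted and plated on SP-4 agar; colonies counted after 7 d. Three repeats.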

[3] = M. pneumoniae-infected mice, IM, n=13-15
[4] = M. pneumoniae-infected mice, PO, n=13-15
[5] = tiamulin 40 mg/kg IM, from HPS at 192 h

C=C[C@]1(C)C[C@@H](OC(=O)CSCCN(CC)CC)[C@]2(C)[C@H](C)CC[C@]3(CCC(=O)[C@H]32)[C@@H](C)[C@@H]1O [tiamulin, Tiamulin, reference compound]
Recovery [1, 3]: 35.7%
Response [1, 3]: 100%
Recovery [1, 4]: 6.67%
Response [1, 4]: 86.67%
HPS value (mean) ([1]; tiamulin 40 mg/kg IM, 96 h): 1
HPS ([1]; tiamulin 40 mg/kg IM, 96h): 2.5 and 0.5 and 1
HPS ([1]; tiamulin 40 mg/kg IM, 192h): 0.5 and 0 and 1
Recovery [1, 5]: 35.7%
Response [1, 5]: 100%
M. pneumoniae count in time-kill curve ([2]; 1×MIC, time 0): 6.339
M. pneumoniae count in time-kill curve ([2]; 1×MIC, time 12): 5.698
M. pneumoniae count in time-kill curve ([2]; 1×MIC, time 24): 6.253
M. pneumoniae count in time-kill curve ([2]; 1×MIC, time 36): 5.423
M. pneumoniae count in time-kill curve ([2]; 1×MIC, time 48): 4.896
M. pneumoniae count in time-kill curve ([2]; 1×MIC, time 60): 5.29
M. pneumoniae count in time-kill curve ([2]; 1×MIC, time 72): 4.787
M. pneumoniae count in time-kill curve ([2]; 2×MIC, time 0): 6.339
M. pneumoniae count in time-kill curve ([2]; 2×MIC, time 12): 6.4123
M. pneumoniae count in time-kill curve ([2]; 2×MIC, time 24): 6.433
M. pneumoniae count in time-kill curve ([2]; 2×MIC, time 36): 4.77
M. pneumoniae count in time-kill curve ([2]; 2×MIC, time 48): 4.196
M. pneumoniae count in time-kill curve ([2]; 2×MIC, time 60): 3.827
M. pneumoniae count in time-kill curve ([2]; 2×MIC, time 72): 3.91
M. pneumoniae count in time-kill curve ([2]; 4×MIC, time 0): 6.339
M. pneumoniae count in time-kill curve ([2]; 4×MIC, time 12): 6.61
M. pneumoniae count in time-kill curve ([2]; 4×MIC, time 24): 6.296
M. pneumoniae count in time-kill curve ([2]; 4×MIC, time 36): 3.841
M. pneumoniae count in time-kill curve ([2]; 4×MIC, time 48): 3.684
M. pneumoniae count in time-kill curve ([2]; 4×MIC, time 60): 3.889
M. pneumoniae count in time-kill curve ([2]; 4×MIC, time 72): 3.638
M. pneumoniae count in time-kill curve ([2]; 8×MIC, time 0): 6.339
M. pneumoniae count in time-kill curve ([2]; 8×MIC, time 12): 6.119
M. pneumoniae count in time-kill curve ([2]; 8×MIC, time 24): 6.148
M. pneumoniae count in time-kill curve ([2]; 8×MIC, time 36): 3.952
M. pneumoniae count in time-kill curve ([2]; 8×MIC, time 48): 3.772
M. pneumoniae count in time-kill curve ([2]; 8×MIC, time 60): 3.839
M. pneumoniae count in time-kill curve ([2]; 8×MIC, time 72): 3.776
M. pneumoniae count in time-kill curve ([2]; 16×MIC, time 0): 6.339
M. pneumoniae count in time-kill curve ([2]; 16×MIC, time 12): 6.238
M. pneumoniae count in time-kill curve ([2]; 16×MIC, time 24): 5.56
M. pneumoniae count in time-kill curve ([2]; 16×MIC, time 36): 4
M. pneumoniae count in time-kill curve ([2]; 16×MIC, time 48): 3.739
M. pneumoniae count in time-kill curve ([2]; 16×MIC, time 60): 3.621
M. pneumoniae count in time-kill curve ([2]; 16×MIC, time 72): 3.801
M. pneumoniae count in time-kill curve ([2]; 32×MIC, time 0): 6.339
M. pneumoniae count in time-kill curve ([2]; 32×MIC, time 12): 6.569
M. pneumoniae count in time-kill curve ([2]; 32×MIC, time 24): 5.262
M. pneumoniae count in time-kill curve ([2]; 32×MIC, time 36): 3.833
M. pneumoniae count in time-kill curve ([2]; 32×MIC, time 48): 3.266
M. pneumoniae count in time-kill curve ([2]; 32×MIC, time 60): 3.249
M. pneumoniae count in time-kill curve ([2]; 32×MIC, time 72): 3.425
M. pneumoniae count in time-kill curve ([2]; 64×MIC, time 0): 6.339
M. pneumoniae count in time-kill curve ([2]; 64×MIC, time 12): 6.625
M. pneumoniae count in time-kill curve ([2]; 64×MIC, time 24): 4.23
M. pneumoniae count in time-kill curve ([2]; 64×MIC, time 36): 3.61
M. pneumoniae count in time-kill curve ([2]; 64×MIC, time 48): 3.065
M. pneumoniae count in time-kill curve ([2]; 64×MIC, time 60): 3.16
M. pneumoniae count in time-kill curve ([2]; 64×MIC, time 72): 3.29
concentration at which bactericidal effect was achieved ([2]; static time-kill, 72 h): 64 × MIC
